Data: patent US9517222B2, “Method for the treatment of senile dementia of the Alzheimer's type” (Phenomenome Discoveries Inc., priority 2007, dated 2016)

Tests used:
Assay type in all cases: cell-based
NRel-4 cell line = experiment: Total, free and esterified cholesterol in cultured cells (Cholesterol Quantification kit)
Procedure: Total cholesterol (solid bars), esterified cholesterol (hatched bars), and free cholesterol (dotted) content is represented as μg per million cells. C_V: control CHO cells treated with ethanol carrier; N_V: NRel4 cells treated with ethanol carrier; N_5a: Nrel-4 cells treated with metabolic precursor 5a (20 μM).
To test the effect of metabolite precursors on total and esterified cholesterol in vitro, the CHO/NRel-4 cell line model was used. […] CHO cell line cultured in the presence of the ethanol vehicle (C_V) has 6.66 μg total cholestero/million cells. This reflects the wild type phenotype, and was used for normalization. The NRel-4 cell line deficient in plasmalogen synthesis cultured in the presence of ethanol vehicle (N_V) had 10.75 μg total cholestero/million cells (61% higher than control). Culturing the deficient cells with the metabolic precursor 5a (sn-1-alkyl, sn-2-DHA glycerol) for 72 hours at a concentration of 20 µM (N_5a) reduced the total cholesterol content to […] (24% higher than control). […] Treatment with 5a reduced the free cholesterol content to 5.8 μg/million cells. A reciprocal trend was observed when assaying the fraction of cholesterol that was esterified in the cell lines.

wild type CHO cells = experiment: Restoration of PtdEt and EtnPl pools in vitro, wild type CHO cells; settings: 20 μM, 72 hours
Procedure: (§1) FIGS. 25A-B show the relative change in the total EtnPls and PtdEt content. […] Values are normalized to untreated control CHO cells, and are an average of three independent experiments. Statistical significance was determined using a two-tailed t-test.
(§2) FIGS. 26A-B show the relative change in the DHA-EtnPls and DHA-PtdEt content. […] Values are normalized to untreated control CHO cells, and are an average of three independent experiments. Statistical significance was determined using a two-tailed t-test.
(§3) To investigate whether exogenous metabolic precursors can restore the ethanolamine phospholipids deficiency in vitro, a CHO cell line deficient in plasmalogen synthesis (NRel-4) was treated with the metabolic precursors 5a (sn-1-alkyl,sn-2-DHA glycerol) for 72 hours at a concentration of 20 μM, and its lipid profile was compared with the wild type cell line.

[1] = tested on: plasmalogen-deficient NRel-4 cells; experiment: Restoration of PtdEt and EtnPl pools in vitro, plasmalogen-deficient NRel-4 cells; settings: 20 μM, 72 hours
Procedure: as §1, §2, §3

SMILES: CC/C=C\C/C=C\C/C=C\C/C=C\C/C=C\C/C=C\CCC(=O)OC(CO)COCCCCCCCCCCCCCCCC (racemic) [Metabolite 5a, (4Z,7Z,10Z,13Z,16Z,19Z)-1-(hexadecyloxy)-3-hydroxypropan-2-yl docosa-4,7,10,13,16,19-hexanenoate]
- Esterified cholesterol (NRel-4 cell line; NRel-4 cells treated with 5a, vehicle NRel-4 1.84): 2.49 μg/million cells
- Free cholesterol content (NRel-4 cell line; NRel-4 cells treated with 5a, vehicle NRel-4 8.9, CHO 4.5): 5.8 μg/million cells
- Total cholesterol content (NRel-4 cell line; NRel-4 cells, 72 hours, 20 μM (N_5a), vehicle NRel-4 10.75, CHO 6.66): 8.28 μg/million cells
- Total cholesterol content higher than control (NRel-4 cell line; NRel-4 cells, 72 hours, 20 μM, vs CHO vehicle control): 24%
- Increase in the esterified fraction of cholesterol (NRel-4 cell line; NRel-4 cells, vs vehicle-treated NRel-4): 34%
- Relative total EtnPls content (wild type CHO cells; normalized to untreated control CHO cells): 86.9%
- Total DHA-EtnPls pool (wild type CHO cells; of CHO levels): 136.8%
- Total PtdEt content (wild type CHO cells; of untreated control): 54.9%
- DHA-PtdEt pool (wild type CHO cells; vs untreated control CHO): 93.5%
- Relative total EtnPls content ([1]; normalized to untreated control CHO cells, vehicle 10.8%): 44.2%
- Total DHA-EtnPls pool ([1]; of CHO levels, vehicle 8.7%): 72.3%
- Total PtdEt content ([1]; of the control CHO): 55.9%
- DHA-PtdEt pool ([1]; vs untreated control CHO): 110.6%
